In the supplement of paper PMC10307832:

Key:
Experiment in all cases: relative viability (nuclei count vs DMSO), 5 days (fraction); higher = more cells survive
[1] = compound: Nc1ccn([C@@H]2O[C@H](CO)[C@@H](O)C2(F)F)c(=O)n1 [Gemcitabine] + CC(C)C[C@H](NC(=O)[C@H](Cc1ccccc1)NC(=O)c1cnccn1)B(O)O [Bortezomib] (partner 0.002 µM)
Summary of the method: (§1)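 Values are medians from duplicate plates. Each reflects relative viability, defined as the nuclei count of treated wells over that of vehicle wells. Lung cancer cell lines in 1536-well plates were pin-tool dosed one day after seeding with one drug alone or with a fixed anchor-drug dose plus five library-drug doses (not always all listed) in √10 steps, then fixed, stained and imaged at 4× after 5 days.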

[2] = compound: Nc1ccn([C@@H]2O[C@H](CO)[C@@H](O)C2(F)F)c(=O)n1 [Gemcitabine] + CC1(C)CCC(c2ccc(Cl)cc2)=C(CN2CCN(c3ccc(C(=O)NS(=O)(=O)c4ccc(N[C@H](CCN5CCOCC5)CSc5ccccc5)c(S(=O)(=O)C(F)(F)F)c4)cc3)CC2)C1 [Navitoclax] (partner 0.5 µM)
Summary of the method: as §1

[3] = compound: Nc1ccn([C@@H]2O[C@H](CO)[C@@H](O)C2(F)F)c(=O)n1 [Gemcitabine] + CCNC(=O)c1noc(-c2cc(C(C)C)c(O)cc2O)c1-c1ccc(CN2CCOCC2)cc1 [Luminespib] (partner 0.01 µM)
Summary of the method: as §1

[4] = compound: Nc1ccn([C@@H]2O[C@H](CO)[C@@H](O)C2(F)F)c(=O)n1 [Gemcitabine] + Cc1nc(Nc2ncc(C(=O)Nc3c(C)cccc3Cl)s2)cc(N2CCN(CCO)CC2)n1 [Dasatinib] (partner 0.075 µM)
Summary of the method: as §1

Cell Line	relative viability ([1]; first compound 0.001 µM)	relative viability ([1]; first compound 0.003162 µM)	relative viability ([1]; first compound 0.01 µM)	relative viability ([1]; first compound 0.03162 µM)	relative viability ([1]; first compound 0.1 µM)	relative viability ([2]; first compound 0.001 µM)	relative viability ([2]; first compound 0.003162 µM)	relative viability ([2]; first compound 0.01 µM)	relative viability ([2]; first compound 0.03162 µM)	relative viability ([2]; first compound 0.1 µM)	relative viability ([3]; first compound 0.001 µM)	relative viability ([3]; first compound 0.003162 µM)	relative viability ([3]; first compound 0.01 µM)	relative viability ([3]; first compound 0.03162 µM)	relative viability ([3]; first compound 0.1 µM)	relative viability ([4]; first compound 0.001 µM)	relative viability ([4]; first compound 0.003162 µM)	relative viability ([4]; first compound 0.01 µM)	relative viability ([4]; first compound 0.03162 µM)	relative viability ([4]; first compound 0.1 µM)
LU99A	1.14	1.18	1	1.25	1.18	0.875	0.976	0.667	0.871	0.474	0.238	0.306	0.233	0.232	0.266	0.555	0.56	0.558	0.516	0.507
LXF-289	0.995	1.02	0.768	0.178	0.0983	0.934	0.925	0.655	0.084	0.0735	0.627	0.706	0.479	0.106	0.112	0.227	0.22	0.0855	0.0424	0.0448
NCI-H23	0.848	0.511	0.148	0.141	0.0999	0.866	0.245	0.125	0.139	0.124	0.214	0.212	0.192	0.175	0.217	0.865	0.36	0.126	0.135	0.1
NCI-H322M	1.35	0.439	0.334	0.291	0.234	0.96	0.52	0.286	0.207	0.228	0.73	0.445	0.334	0.36	0.344	0.295	0.241	0.28	0.274	0.252
NCI-H441	0.642	0.327	0.116	0.14	0.139	0.348	0.211	0.171	0.189	0.102	0.343	0.332	0.198	0.189	0.177	0.569	0.282	0.215	0.129	0.133
NCI-H460	1.24	1.09	0.419	0.0106	0.0083	1.09	1.05	0.533	0.0127	0.0085	0.0273	0.0507	0.0367	0.0148	0.014	0.495	0.524	0.46	0.0224	0.0058
NCI-H520	0.604	0.698	0.295	0.154	0.11	1.23	1.17	0.35	0.205	0.158	0.22	0.231	0.224	0.201	0.252	0.212	0.258	0.161	0.151	0.154
NCI-H596	1	1.11	0.555	0.349	0.41	1.06	0.949	0.506	0.23	0.171	1.23	0.949	0.323	0.31	0.305	0.528	0.521	0.289	0.242	0.215
NCI-H647	0.783	0.224	0.0897	0.0721	0.0698	0.916	0.253	0.0668	0.0642	0.0514	0.166	0.118	0.0907	0.0871	0.0761	0.1	0.0588	0.0298	0.0257	0.0223
NCI-H727	0.841	0.405	0.241	0.258	0.287	0.311	0.229	0.115	0.146	0.081	0.312	0.288	0.352	0.207	0.342	0.303	0.33	0.295	0.264	0.345
NCI-H838	0.911	0.948	1.02	0.355	0.0993	1.17	1.36	1.09	0.367	0.176	0.286	0.289	0.241	0.292	0.18	0.293	0.287	0.318	0.261	0.136
NCI-H1355	1.17	0.948	0.521	0.145	0.16	0.937	0.461	0.168	0.109	0.112	0.724	0.62	0.24	0.22	0.213	0.813	0.695	0.226	0.196	0.143
NCI-H1437	0.532	0.395	0.342	0.127	0.105	1.06	1.05	0.555	0.206	0.111	1.08	1.02	0.645	0.391	0.191	0.392	0.274	0.285	0.139	0.107
NCI-H1650	0.189	0.18	0.175	0.147	0.133	1.57	0.851	0.434	0.176	0.11	0.197	0.185	0.177	0.197	0.177	0.297	0.241	0.141	0.088	0.115
NCI-H1651	0.988	0.89	0.919	0.885	0.173	1.07	1.16	0.928	0.204	0.0844	0.906	0.893	0.731	0.278	0.134	0.412	0.495	0.257	0.0946	0.0687
NCI-H1666	0.739	0.979	0.567	0.24	0.225	0.872	0.836	0.393	0.281	0.275	1.01	0.937	0.957	0.595	0.393	0.797	0.796	0.715	0.52	0.375

Cell Line	relative viability ([1]; first compound 0.001 µM)	relative viability ([1]; first compound 0.003162 µM)	relative viability ([1]; first compound 0.01 µM)	relative viability ([1]; first compound 0.03162 µM)	relative viability ([1]; first compound 0.1 µM)	relative viability ([2]; first compound 0.001 µM)	relative viability ([2]; first compound 0.003162 µM)	relative viability ([2]; first compound 0.01 µM)	relative viability ([2]; first compound 0.03162 µM)	relative viability ([2]; first compound 0.1 µM)	relative viability ([3]; first compound 0.001 µM)	relative viability ([3]; first compound 0.003162 µM)	relative viability ([3]; first compound 0.01 µM)	relative viability ([3]; first compound 0.03162 µM)	relative viability ([3]; first compound 0.1 µM)	relative viability ([4]; first compound 0.001 µM)	relative viability ([4]; first compound 0.003162 µM)	relative viability ([4]; first compound 0.01 µM)	relative viability ([4]; first compound 0.03162 µM)	relative viability ([4]; first compound 0.1 µM)
NCI-H1734	1.08	0.862	0.199	0.157	0.102	0.843	0.562	0.195	0.106	0.0836	0.159	0.157	0.119	0.136	0.119	0.385	0.354	0.111	0.0942	0.091
NCI-H1755	0.952	0.958	0.84	0.343	0.312	0.925	1.04	0.827	0.256	0.153	0.451	0.505	0.491	0.346	0.26	0.454	0.457	0.392	0.243	0.207
NCI-H1792	1.08	0.925	0.308	0.133	0.093	0.828	0.581	0.133	0.0844	0.0803	0.382	0.286	0.233	0.206	0.167	0.785	0.485	0.329	0.192	0.142
NCI-H1915	0.978	1	0.969	0.825	0.617	0.768	0.789	0.785	0.797	0.364	0.826	0.759	0.693	0.669	0.356	0.357	0.344	0.295	0.255	0.181
NCI-H1975	0.385	0.401	0.207	0.198	0.155	1.07	1.14	0.463	0.228	0.179	0.173	0.158	0.154	0.182	0.13	0.419	0.574	0.241	0.0982	0.103
NCI-H1993	1.08	1.15	0.713	0.524	0.446	1.1	1.01	0.583	0.673	0.513	0.61	0.85	0.579	0.508	0.45	0.617	0.529	0.446	0.509	0.42
NCI-H2009	1.06	0.586	0.133	0.111	0.0676	1.25	0.87	0.366	0.0871	0.0975	1.08	0.751	0.325	0.179	0.126	0.297	0.219	0.101	0.101	0.0766
NCI-H2023	1.12	1.11	0.241	0.104	0.0584	0.986	0.794	0.667	0.135	0.0835	0.96	0.755	0.623	0.141	0.0596	0.529	0.533	0.207	0.0853	0.0604
NCI-H2085	1.02	0.964	0.897	0.682	0.405	1.1	1.15	0.848	0.646	0.484	0.435	0.477	0.369	0.298	0.263	0.221	0.232	0.287	0.206	0.158
NCI-H2087	0.743	0.569	0.581	0.155	0.166	1.11	0.813	0.397	0.156	0.153	0.178	0.159	0.14	0.147	0.138	0.746	0.499	0.169	0.0893	0.0871
NCI-H2126	1.05	1.1	1.04	0.985	0.67	0.821	0.815	0.812	0.728	0.369	0.975	0.828	0.773	0.414	0.257	0.647	0.6	0.548	0.389	0.19
NCI-H2228	0.98	1.06	0.281	0.198	0.126	1.13	0.407	0.203	0.0863	0.0652	0.131	0.0993	0.14	0.149	0.124	0.529	0.3	0.118	0.111	0.087
NCI-H2347	0.621	0.961	0.534	0.653	0.401	0.86	0.64	0.639	0.334	0.206	0.412	0.513	0.302	0.448	0.282	0.291	0.304	0.257	0.22	0.195
NCI-H2405	0.974	0.957	0.582	0.275	0.231	0.992	0.551	0.0966	0.084	0.0831	0.73	0.746	0.587	0.207	0.216	0.2	0.196	0.199	0.151	0.159
NCI-H3122	1.08	0.985	0.889	0.303	0.24	1.02	1.03	0.912	0.253	0.196	0.1	0.0845	0.0643	0.0629	0.0705	0.852	0.89	0.588	0.0797	0.0782
PC-3 [JPC-3]	0.835	0.785	0.512	0.286	0.237	0.81	0.688	0.504	0.448	0.281	0.79	0.685	0.415	0.349	0.314	1.01	0.925	0.635	0.252	0.207
